Data taken from paper PMC7468908 (Nutrients, 2020).

What follows are molecules tested against T1, CYP2D6 (Homo sapiens, UniProt P10635) (assay: CYP2D6-catalyzed dextromethorphan O-demethylation (CypExpress kit, HPLC)). Settings: up to 30 μM flavonoid, substrate 5 µM dextromethorphan.
T1 construct: purchased Sigma-Aldrich
Type: biochemical
Description: Inhibition of CYP2C19 [47], 3A4 [48], and 2D6 [49] by Q and its conjugates was tested based on our previously reported methods, without modifications.
S-mephenytoin and 4-hydroxymephenytoin (CYP2C19 assay), testosterone and 6β-hydroxytestosterone (CYP3A4 assay), as well as dextromethorphan and dextrorphan (CYP2D6 assay) were quantified using the previously described methods, with minor modifications.
In the CYP2D6 assay, samples were driven through a guard column (Security Guard C8, 4.0 × 3.0 mm; Phenomenex, Torrance, CA, USA) linked to an analytical column (Mediterranea Sea8 C8 150 × 4.6 mm; 5 µm; Teknokroma, Barcelona, Spain). The isocratic elution was performed with 1 mL/min flow rate at room temperature, the mobile phase contained acetonitrile and 6.9 mM sodium-acetate buffer (pH 4.0) (31:69 v/v%). Dextromethorphan and dextrorphan were detected at 280 nm.

T1 sequence (P10635 whole entry): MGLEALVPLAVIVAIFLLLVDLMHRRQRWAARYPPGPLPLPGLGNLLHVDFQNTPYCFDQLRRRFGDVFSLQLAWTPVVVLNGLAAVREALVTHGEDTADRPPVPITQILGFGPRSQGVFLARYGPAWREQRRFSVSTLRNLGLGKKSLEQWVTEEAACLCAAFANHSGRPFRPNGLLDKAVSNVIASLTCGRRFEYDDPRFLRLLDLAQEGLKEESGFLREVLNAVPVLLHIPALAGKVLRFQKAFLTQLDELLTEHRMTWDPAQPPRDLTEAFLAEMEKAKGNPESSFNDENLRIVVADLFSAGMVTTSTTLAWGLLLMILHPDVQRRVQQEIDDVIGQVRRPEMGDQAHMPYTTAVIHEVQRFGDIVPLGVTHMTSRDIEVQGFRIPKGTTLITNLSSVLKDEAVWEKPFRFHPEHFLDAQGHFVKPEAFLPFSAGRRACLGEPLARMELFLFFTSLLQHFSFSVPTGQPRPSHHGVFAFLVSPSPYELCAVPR

With `O=c1c(O)c(-c2ccc(O)c(O)c2)oc2cc(O)cc(O)c12` [Q, quercetin] the “inhibition of CYP2D6 activity” value was “did not affect”.
For `COc1cc(-c2oc3cc(O)cc(O)c3c(=O)c2OC2OC(C(=O)O)C(O)C(O)C2O)ccc1O` (centres unmarked) [I3G, isorhamnetin-3-glucuronide], the “inhibition of CYP2D6 activity” value was “did not affect”.
With `O=c1c(O)c(-c2ccc(O)c(OS(=O)(=O)O)c2)oc2cc(O)cc(O)c12` [Q3′S, quercetin-3′-sulfate] the “inhibition of CYP2D6 activity” value was “did not affect”.
`O=C(O)C1OC(Oc2c(-c3ccc(O)c(O)c3)oc3cc(O)cc(O)c3c2=O)C(O)C(O)C1O` (centres unmarked) [Q3G, quercetin-3-glucuronide] was tested, and the “inhibition of CYP2D6 activity” value was “did not affect”.
In the case of `COc1cc(-c2oc3cc(O)cc(O)c3c(=O)c2O)ccc1O` [IR, isorhamnetin], the “inhibition of CYP2D6 activity” value is reported as “did not affect”.

The molecules below were run against T2, OATP2B1 (Homo sapiens, UniProt O94956) (assay: OATP2B1-mediated pyranine uptake in A431 cells overexpressing OATP2B1). Settings: 20 μM pyranine, 15 min.
T2 construct: host or cells: A431
T2 sequence (O94956 1-709): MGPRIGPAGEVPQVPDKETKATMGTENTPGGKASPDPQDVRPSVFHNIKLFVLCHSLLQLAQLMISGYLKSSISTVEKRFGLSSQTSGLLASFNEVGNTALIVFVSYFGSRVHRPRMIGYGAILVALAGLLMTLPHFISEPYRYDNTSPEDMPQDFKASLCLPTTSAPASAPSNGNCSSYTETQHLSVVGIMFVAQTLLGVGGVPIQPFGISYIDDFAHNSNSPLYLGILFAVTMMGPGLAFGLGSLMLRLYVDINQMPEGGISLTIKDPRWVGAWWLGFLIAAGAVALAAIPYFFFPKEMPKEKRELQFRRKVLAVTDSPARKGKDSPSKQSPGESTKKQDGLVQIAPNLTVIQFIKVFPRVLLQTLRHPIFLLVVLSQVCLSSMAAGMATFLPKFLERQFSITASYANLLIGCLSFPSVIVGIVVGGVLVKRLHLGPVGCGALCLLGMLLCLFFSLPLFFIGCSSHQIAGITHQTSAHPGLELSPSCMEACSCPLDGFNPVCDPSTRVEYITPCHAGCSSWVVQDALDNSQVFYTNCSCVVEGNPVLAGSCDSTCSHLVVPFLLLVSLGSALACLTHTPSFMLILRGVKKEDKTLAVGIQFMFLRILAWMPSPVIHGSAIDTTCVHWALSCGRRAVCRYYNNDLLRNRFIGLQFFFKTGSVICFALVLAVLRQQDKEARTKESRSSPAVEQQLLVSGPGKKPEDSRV
Type: cell-based
Description: A431 cells overexpressing human OATPs, 1A2 (BC042452, HsCD00333163), 1B1 (Gene ID: AB026257), 1B3 (BC141525, HsCD00348132) or 2B1 (BC041095.1, HsCD00378878), or their mock transfected controls, were generated as previously described. Cells were cultured in Dulbecco’s Modified Eagle Medium (DMEM; Thermo Fischer Scientific, Waltham, MA, USA) supplemented with 10% fetal bovine serum, 2 mM L-glutamine, 100 units/mL penicillin and 100 µg/mL streptomycin, at 37 °C with 5% CO2.
The interaction between flavonoids and OATPs was investigated in an indirect assay employing the fluorescent dye substrates, pyranine and sulforhodamine 101 [51, 52]. Briefly, A431 cell overexpressing OATPs, 1A2, 1B1, 1B3 or 2B1, or their mock transfected controls, were seeded on 96-well plates in a density of 8x10^4 cells/well in 200 μL DMEM one day prior to the transport measurements. […] The reaction was started by the addition of 50 μL uptake buffer containing pyranine in a final concentration of 10 μM (OATP1B1) or 20 μM (OATP1B3 and OATP2B1), or 0.5 μM sulforhodamine 101 (OATP1A2). Thereafter, cells were incubated at 37°C for 15 min (OATP1B1 and OATP2B1), 10 min (OATP1A2), or 30 min (OATP1B3). The reactions were stopped by removing the supernatants, then the cells were washed three times with ice-cold PBS. Fluorescence (in 200 μL PBS/well) was determined employing an Enspire plate reader (Perkin Elmer, Waltham, MA) ex/em: 403/517 nm (pyranine) or 586/605 nm (sulforhodamine 101). OATP-dependent transport was calculated by extracting fluorescence measured in mock transfected cells. Transport activity was calculated based on the fluorescence signal in the absence (100%) of flavonoids. Experiments were repeated at least in three biological replicates. IC50 values were calculated by Hill1 fit, using the Origin Pro8.6 software ([…]).

Point of comparison: `O=c1c(O)c(-c2ccc(O)c(O)c2)oc2cc(O)cc(O)c12` [Q, quercetin], “concentration causing statistically significant (p < 0.01) inhibition, OATP2B1” value 0.3 µM. Against it:
- COc1cc(-c2oc3cc(O)cc(O)c3c(=O)c2OC2OC(C(=O)O)C(O)C(O)C2O)ccc1O (centres unmarked) [I3G, isorhamnetin-3-glucuronide] — 5.3-fold higher, 1.6 µM
- O=c1c(O)c(-c2ccc(O)c(OS(=O)(=O)O)c2)oc2cc(O)cc(O)c12 [Q3′S, quercetin-3′-sulfate] — the same, 0.3 µM
- O=C(O)C1OC(Oc2c(-c3ccc(O)c(O)c3)oc3cc(O)cc(O)c3c2=O)C(O)C(O)C1O (centres unmarked) [Q3G, quercetin-3-glucuronide] — 10-fold higher, 3.1 µM
- COc1cc(-c2oc3cc(O)cc(O)c3c(=O)c2O)ccc1O [IR, isorhamnetin] — 2-fold higher, 0.6 µM

Same assay, conditions: 20 μM pyranine, 15 min, A431-OATP2B1 cells; read-out: IC50 for OATP2B1

Point of comparison: `COc1cc(-c2oc3cc(O)cc(O)c3c(=O)c2OC2OC(C(=O)O)C(O)C(O)C2O)ccc1O` (centres unmarked) [I3G, isorhamnetin-3-glucuronide], IC50 4140 nM. Against it:
- O=c1c(O)c(-c2ccc(O)c(O)c2)oc2cc(O)cc(O)c12 [Q, quercetin] — 12-fold lower, 340 nM
- O=c1c(O)c(-c2ccc(O)c(OS(=O)(=O)O)c2)oc2cc(O)cc(O)c12 [Q3′S, quercetin-3′-sulfate] — 9.6-fold lower, 430 nM
- O=C(O)C1OC(Oc2c(-c3ccc(O)c(O)c3)oc3cc(O)cc(O)c3c2=O)C(O)C(O)C1O (centres unmarked) [Q3G, quercetin-3-glucuronide] — within 1.5-fold, 4850 nM

Same assay, conditions: IC50 for OATP2B1, 20 μM pyranine, 15 min, A431-OATP2B1 cells

`COc1cc(-c2oc3cc(O)cc(O)c3c(=O)c2O)ccc1O` [IR, isorhamnetin] showed an IC50 of 820 nM.

The molecules below were run against T3, BCRP (Homo sapiens, UniProt Q9UNQ0) (assay: BCRP vanadate sensitive ATPase activity in Sf9 membrane vesicles). Settings: 3 mM Mg-ATP, 25 min, 37 °C.
T3 construct: made in house; host or cells: Sf9 insect cells (baculovirus)
T3 sequence (Q9UNQ0 1-655): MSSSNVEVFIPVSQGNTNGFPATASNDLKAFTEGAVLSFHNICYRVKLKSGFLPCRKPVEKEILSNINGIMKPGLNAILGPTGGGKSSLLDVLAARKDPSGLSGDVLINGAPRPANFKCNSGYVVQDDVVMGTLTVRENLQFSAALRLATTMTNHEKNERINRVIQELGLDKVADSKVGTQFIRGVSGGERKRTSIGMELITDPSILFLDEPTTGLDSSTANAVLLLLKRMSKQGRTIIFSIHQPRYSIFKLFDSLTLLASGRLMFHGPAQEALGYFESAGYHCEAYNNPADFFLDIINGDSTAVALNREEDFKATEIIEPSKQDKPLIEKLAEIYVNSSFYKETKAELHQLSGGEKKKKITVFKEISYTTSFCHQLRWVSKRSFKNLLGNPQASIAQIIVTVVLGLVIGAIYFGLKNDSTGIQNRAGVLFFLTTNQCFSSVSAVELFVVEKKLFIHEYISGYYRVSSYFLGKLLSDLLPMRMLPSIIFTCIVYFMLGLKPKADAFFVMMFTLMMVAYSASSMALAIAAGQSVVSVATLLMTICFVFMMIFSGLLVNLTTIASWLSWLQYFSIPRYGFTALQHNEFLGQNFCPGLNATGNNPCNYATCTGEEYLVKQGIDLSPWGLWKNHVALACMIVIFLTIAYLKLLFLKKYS
Type: biochemical
Description: ATPase activity was measured on Sf9 membrane vesicles containing human BCRP prepared as described in 2.5. Appropriate amounts of vesicles (10 μg/50 μL) were used in the assays. Experimental parameters were the same as it has been earlier reported. Membrane vesicles were incubated with 3 mM of Mg-ATP for 25 min at 37 °C. Effects of flavonoids were investigated up to 50 μM. […] ABC transporter function was determined as vanadate sensitive ATPase activity. Liberated inorganic phosphate was measured by a colorimetric reaction as described. Absorbance of samples was measured after 25 min at 660 nm.

Point of comparison: `O=c1c(O)c(-c2ccc(O)c(O)c2)oc2cc(O)cc(O)c12` [Q, quercetin], “concentration inducing statistically significant (p < 0.01) increase in ATPase activity of BCRP” value 80 nM. Against it:
- COc1cc(-c2oc3cc(O)cc(O)c3c(=O)c2OC2OC(C(=O)O)C(O)C(O)C2O)ccc1O (centres unmarked) [I3G, isorhamnetin-3-glucuronide] — 120-fold higher, 10000 nM
- O=c1c(O)c(-c2ccc(O)c(OS(=O)(=O)O)c2)oc2cc(O)cc(O)c12 [Q3′S, quercetin-3′-sulfate] — 5-fold higher, 400 nM
- O=C(O)C1OC(Oc2c(-c3ccc(O)c(O)c3)oc3cc(O)cc(O)c3c2=O)C(O)C(O)C1O (centres unmarked) [Q3G, quercetin-3-glucuronide] — 620-fold higher, 50000 nM
- COc1cc(-c2oc3cc(O)cc(O)c3c(=O)c2O)ccc1O [IR, isorhamnetin] — 4-fold lower, 20 nM
